Results reported in the NIST ThermoML archive (doi:10.1021/je700297c).
± gives the expanded uncertainty stated by the source.

Experiment: activity coefficient (dimensionless); of the first substance listed, at infinite dilution; xn = mol fraction of the nth substance listed
Conditions: Liquid, Chromatography, x1 = 0

Structure (SMILES)	activity coefficient (333 K)	activity coefficient (323 K)	activity coefficient (298 K)	activity coefficient (303 K)
c1ccccc1 [benzene] + CCCCCCCCCCCCCCCC(=O)[O-].CCCCn1cc[n+](C)c1	0.7 ± 0.1			
c1ccccc1 [benzene] + CCCCCCCCCCCCCCCCCC(=O)[O-].CCCCn1cc[n+](C)c1	0.7 ± 0.1	0.7 ± 0.1		
c1ccccc1 [benzene] + CCCCCCCC[n+]1ccn(C)c1.F[B-](F)(F)F		0.6 ± 0.1	0.7 ± 0.1	
c1ccccc1 [benzene] + CCCC[n+]1ccn(C)c1.O=S(=O)([N-]S(=O)(=O)C(F)(F)F)C(F)(F)F		0.8 ± 0.1		
c1ccccc1 [benzene] + CCCCn1cc[n+](C)c1.F[B-](F)(F)F		1.5 ± 0.1	1.5 ± 0.1	
c1ccccc1 [benzene] + C[n+]1ccn(CCCC#N)c1.N#CN=C=[N-]		2.2 ± 0.2		2.3 ± 0.2
c1ccccc1 [benzene] + C[n+]1ccn(CCCC#N)c1.O=S(=O)([N-]S(=O)(=O)C(F)(F)F)C(F)(F)F		1.7 ± 0.1		1.8 ± 0.1
C1CCCCC1 [cyclohexane] + CCCCCCCCCCCCCCCC(=O)[O-].CCCCn1cc[n+](C)c1	0.9 ± 0.1			
C1CCCCC1 [cyclohexane] + CCCCCCCCCCCCCCCCCC(=O)[O-].CCCCn1cc[n+](C)c1	1.2 ± 0.1	1.1 ± 0.1		
C1CCCCC1 [cyclohexane] + CCCCCCCC[n+]1ccn(C)c1.F[B-](F)(F)F		3.9 ± 0.3	5.3 ± 0.4	
C1CCCCC1 [cyclohexane] + CCCC[n+]1ccn(C)c1.O=S(=O)([N-]S(=O)(=O)C(F)(F)F)C(F)(F)F		6.7 ± 0.5		
C1CCCCC1 [cyclohexane] + CCCCn1cc[n+](C)c1.F[B-](F)(F)F		24.7 ± 1.7	30.7 ± 2.1	
C1CCCCC1 [cyclohexane] + C[n+]1ccn(CCCC#N)c1.N#CN=C=[N-]		58.9 ± 4		81.7 ± 5.6
C1CCCCC1 [cyclohexane] + C[n+]1ccn(CCCC#N)c1.O=S(=O)([N-]S(=O)(=O)C(F)(F)F)C(F)(F)F		45.9 ± 3.1		55.4 ± 3.8
CCO [ethanol] + CCCCCCCCCCCCCCCC(=O)[O-].CCCCn1cc[n+](C)c1	0.4 ± 0.1			
CCO [ethanol] + CCCCCCCCCCCCCCCCCC(=O)[O-].CCCCn1cc[n+](C)c1	0.4 ± 0.1	0.5 ± 0.1		
CCO [ethanol] + CCCCCCCC[n+]1ccn(C)c1.F[B-](F)(F)F		0.4 ± 0.1	0.5 ± 0.1	
CCO [ethanol] + CCCC[n+]1ccn(C)c1.O=S(=O)([N-]S(=O)(=O)C(F)(F)F)C(F)(F)F		1.2 ± 0.1		
CCO [ethanol] + CCCCn1cc[n+](C)c1.F[B-](F)(F)F		1 ± 0.1	1.1 ± 0.1	
CCO [ethanol] + C[n+]1ccn(CCCC#N)c1.N#CN=C=[N-]		0.4 ± 0.1		0.5 ± 0.1
CCO [ethanol] + C[n+]1ccn(CCCC#N)c1.O=S(=O)([N-]S(=O)(=O)C(F)(F)F)C(F)(F)F		1.4 ± 0.1		1.7 ± 0.1
CCOC(C)=O [ethyl acetate] + CCCCCCCCCCCCCCCC(=O)[O-].CCCCn1cc[n+](C)c1	1 ± 0.1			
CCOC(C)=O [ethyl acetate] + CCCCCCCCCCCCCCCCCC(=O)[O-].CCCCn1cc[n+](C)c1	1.1 ± 0.1	1.1 ± 0.1		

Structure (SMILES)	activity coefficient (333 K)	activity coefficient (323 K)	activity coefficient (298 K)	activity coefficient (303 K)
CCOC(C)=O [ethyl acetate] + CCCCCCCC[n+]1ccn(C)c1.F[B-](F)(F)F		0.8 ± 0.1	0.9 ± 0.1	
CCOC(C)=O [ethyl acetate] + CCCC[n+]1ccn(C)c1.O=S(=O)([N-]S(=O)(=O)C(F)(F)F)C(F)(F)F		0.7 ± 0.1		
CCOC(C)=O [ethyl acetate] + CCCCn1cc[n+](C)c1.F[B-](F)(F)F		1.7 ± 0.1	1.8 ± 0.1	
CCOC(C)=O [ethyl acetate] + C[n+]1ccn(CCCC#N)c1.N#CN=C=[N-]		2.7 ± 0.2		2.8 ± 0.2
CCOC(C)=O [ethyl acetate] + C[n+]1ccn(CCCC#N)c1.O=S(=O)([N-]S(=O)(=O)C(F)(F)F)C(F)(F)F		2.1 ± 0.2		2.1 ± 0.2
CCCCCCC [heptane] + CCCCCCCCCCCCCCCC(=O)[O-].CCCCn1cc[n+](C)c1	1.4 ± 0.1			
CCCCCCC [heptane] + CCCCCCCCCCCCCCCCCC(=O)[O-].CCCCn1cc[n+](C)c1	1.5 ± 0.1	1.8 ± 0.1		
CCCCCCC [heptane] + CCCCCCCC[n+]1ccn(C)c1.F[B-](F)(F)F		8.4 ± 0.6	11 ± 0.8	
CCCCCCC [heptane] + CCCC[n+]1ccn(C)c1.O=S(=O)([N-]S(=O)(=O)C(F)(F)F)C(F)(F)F		15.5 ± 1.1		
CCCCCCC [heptane] + CCCCn1cc[n+](C)c1.F[B-](F)(F)F		70.3 ± 4.8	83.5 ± 5.7	
CCCCCCC [heptane] + C[n+]1ccn(CCCC#N)c1.N#CN=C=[N-]		197 ± 14		231 ± 16
CCCCCCC [heptane] + C[n+]1ccn(CCCC#N)c1.O=S(=O)([N-]S(=O)(=O)C(F)(F)F)C(F)(F)F		126 ± 8.7		134 ± 9.2
C=CCCCC [hex-1-ene] + CCCCCCCCCCCCCCCC(=O)[O-].CCCCn1cc[n+](C)c1	1.1 ± 0.1			
C=CCCCC [hex-1-ene] + CCCCCCCCCCCCCCCCCC(=O)[O-].CCCCn1cc[n+](C)c1	1.2 ± 0.1	1.4 ± 0.1		
C=CCCCC [hex-1-ene] + CCCCCCCC[n+]1ccn(C)c1.F[B-](F)(F)F		3.9 ± 0.3	4.9 ± 0.3	
C=CCCCC [hex-1-ene] + CCCC[n+]1ccn(C)c1.O=S(=O)([N-]S(=O)(=O)C(F)(F)F)C(F)(F)F		6 ± 0.4		
C=CCCCC [hex-1-ene] + CCCCn1cc[n+](C)c1.F[B-](F)(F)F		21.8 ± 1.5	25.8 ± 1.8	
C=CCCCC [hex-1-ene] + C[n+]1ccn(CCCC#N)c1.N#CN=C=[N-]		60.4 ± 4.1		71.7 ± 4.9
C=CCCCC [hex-1-ene] + C[n+]1ccn(CCCC#N)c1.O=S(=O)([N-]S(=O)(=O)C(F)(F)F)C(F)(F)F		47.1 ± 3.2		54.2 ± 3.7
CCCCCC [hexane] + CCCCCCCCCCCCCCCC(=O)[O-].CCCCn1cc[n+](C)c1	1.3 ± 0.1			
CCCCCC [hexane] + CCCCCCCCCCCCCCCCCC(=O)[O-].CCCCn1cc[n+](C)c1	1.4 ± 0.1	1.7 ± 0.1		
CCCCCC [hexane] + CCCCCCCC[n+]1ccn(C)c1.F[B-](F)(F)F		6.7 ± 0.5	8.6 ± 0.6	
CCCCCC [hexane] + CCCC[n+]1ccn(C)c1.O=S(=O)([N-]S(=O)(=O)C(F)(F)F)C(F)(F)F		12.8 ± 0.9		

Structure (SMILES)	activity coefficient (333 K)	activity coefficient (323 K)	activity coefficient (298 K)	activity coefficient (303 K)
CCCCCC [hexane] + CCCCn1cc[n+](C)c1.F[B-](F)(F)F		50.6 ± 3.5	65.9 ± 4.5	
CCCCCC [hexane] + C[n+]1ccn(CCCC#N)c1.N#CN=C=[N-]		145 ± 9.9		213 ± 15
CCCCCC [hexane] + C[n+]1ccn(CCCC#N)c1.O=S(=O)([N-]S(=O)(=O)C(F)(F)F)C(F)(F)F		113 ± 7.7		126 ± 8.6
CO [methanol] + CCCCCCCCCCCCCCCC(=O)[O-].CCCCn1cc[n+](C)c1	0.3 ± 0.1			
CO [methanol] + CCCCCCCCCCCCCCCCCC(=O)[O-].CCCCn1cc[n+](C)c1	0.3 ± 0.1	0.3 ± 0.1		
CO [methanol] + CCCCCCCC[n+]1ccn(C)c1.F[B-](F)(F)F		0.3 ± 0.1	0.3 ± 0.1	
CO [methanol] + CCCC[n+]1ccn(C)c1.O=S(=O)([N-]S(=O)(=O)C(F)(F)F)C(F)(F)F		0.8 ± 0.1		
CO [methanol] + CCCCn1cc[n+](C)c1.F[B-](F)(F)F		0.7 ± 0.1	0.8 ± 0.1	
CO [methanol] + C[n+]1ccn(CCCC#N)c1.N#CN=C=[N-]		0.3 ± 0.1		0.3 ± 0.1
CO [methanol] + C[n+]1ccn(CCCC#N)c1.O=S(=O)([N-]S(=O)(=O)C(F)(F)F)C(F)(F)F		1 ± 0.1		1.1 ± 0.1
CC1CCCCC1 [methylcyclohexane] + CCCCCCCCCCCCCCCC(=O)[O-].CCCCn1cc[n+](C)c1	1 ± 0.1			
CC1CCCCC1 [methylcyclohexane] + CCCCCCCCCCCCCCCCCC(=O)[O-].CCCCn1cc[n+](C)c1	1.3 ± 0.1	1.3 ± 0.1		
CC1CCCCC1 [methylcyclohexane] + CCCCCCCC[n+]1ccn(C)c1.F[B-](F)(F)F		5.3 ± 0.4	6.7 ± 0.5	
CC1CCCCC1 [methylcyclohexane] + CCCC[n+]1ccn(C)c1.O=S(=O)([N-]S(=O)(=O)C(F)(F)F)C(F)(F)F		9.1 ± 0.6		
CC1CCCCC1 [methylcyclohexane] + CCCCn1cc[n+](C)c1.F[B-](F)(F)F		35.5 ± 2.4	43.7 ± 3	
CC1CCCCC1 [methylcyclohexane] + C[n+]1ccn(CCCC#N)c1.N#CN=C=[N-]		84.9 ± 5.8		118 ± 8.1
CC1CCCCC1 [methylcyclohexane] + C[n+]1ccn(CCCC#N)c1.O=S(=O)([N-]S(=O)(=O)C(F)(F)F)C(F)(F)F		66.2 ± 4.5		75.1 ± 5.1
C=CCCCCCC [oct-1-ene] + CCCCCCCCCCCCCCCC(=O)[O-].CCCCn1cc[n+](C)c1	1.4 ± 0.1			
C=CCCCCCC [oct-1-ene] + CCCCCCCCCCCCCCCCCC(=O)[O-].CCCCn1cc[n+](C)c1	1.4 ± 0.1	1.7 ± 0.1		
C=CCCCCCC [oct-1-ene] + CCCCCCCC[n+]1ccn(C)c1.F[B-](F)(F)F		6.6 ± 0.5	7.8 ± 0.5	
C=CCCCCCC [oct-1-ene] + CCCC[n+]1ccn(C)c1.O=S(=O)([N-]S(=O)(=O)C(F)(F)F)C(F)(F)F		12.3 ± 0.8		
